Tested on: 192522-019-R-J2-PDC complex tumor spheroid viability
Test: Anticancer human tumor 192522-019-R-J2-PDC patient-derived colon adenocarcinoma cell line growth inhibition [POLQ]
Settings: for IC50: curve of first compound; for viability, T/C: stronger effect = lower value
Summary of the method: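 Patient-derived tumour cells were co-cultured with HUVEC and mesenchymal stem cells as multicellular spheroids at 37 °C. They were treated with POLQ inhibitors (novobiocin, ART-558, RP6685) alone or combined with other agents. Top concentrations were at or near clinical Cmax (otherwise 10 microM; SN-38 at 1 microM), decreasing in half-log steps.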

[1] = second compound 0.0316 µM, first compound 0.0316 µM
[2] = second compound 0.0316 µM, first compound 0.1 µM
[3] = second compound 0.0316 µM, first compound 0.316 µM
[4] = second compound 0.0316 µM, first compound 1 µM
[5] = second compound 0.0316 µM, first compound 3.16 µM
[6] = second compound 0.0316 µM, first compound 10 µM
[7] = second compound 0.1 µM, first compound 0.0316 µM
[8] = second compound 0.1 µM, first compound 0.1 µM
[9] = second compound 0.1 µM, first compound 0.316 µM
[10] = second compound 0.1 µM, first compound 1 µM
[11] = second compound 0.1 µM, first compound 3.16 µM
[12] = second compound 0.1 µM, first compound 10 µM
[13] = second compound 0.316 µM, first compound 0.0316 µM
[14] = second compound 0.316 µM, first compound 0.1 µM
[15] = second compound 0.316 µM, first compound 0.316 µM
[16] = second compound 0.316 µM, first compound 1 µM
[17] = second compound 0.316 µM, first compound 3.16 µM
[18] = second compound 0.316 µM, first compound 10 µM
[19] = second compound 1 µM, first compound 0.0316 µM
[20] = second compound 1 µM, first compound 0.1 µM
[21] = second compound 1 µM, first compound 0.316 µM
[22] = second compound 1 µM, first compound 1 µM
[23] = second compound 1 µM, first compound 3.16 µM
[24] = second compound 1 µM, first compound 10 µM
[25] = second compound 3.16 µM, first compound 0.0316 µM
[26] = second compound 3.16 µM, first compound 0.1 µM
[27] = second compound 3.16 µM, first compound 0.316 µM
[28] = second compound 3.16 µM, first compound 1 µM
[29] = second compound 3.16 µM, first compound 3.16 µM
[30] = second compound 3.16 µM, first compound 10 µM
[31] = second compound 10 µM, first compound 0.0316 µM
[32] = second compound 10 µM, first compound 0.1 µM
[33] = second compound 10 µM, first compound 0.316 µM
[34] = second compound 10 µM, first compound 1 µM
[35] = second compound 10 µM, first compound 3.16 µM
[36] = second compound 10 µM, first compound 10 µM
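Further: spheroids exposed to drugs for seven days before reading.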
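Wherever viability, T/C is given: 100% = DMSO vehicle control viability in luminescence.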

## C#Cc1c(F)ccc2cc(O)cc(-c3ncc4c(N5CC6CCC(C5)N6)nc(OCC56CCCN5CC(F)C6)nc4c3F)c12 (stereo unspecified) + Cc1cccc(N(C)C(=O)C2C(O)CCN2c2nc(C)cc(C(F)(F)F)c2C#N)c1
Second compound 0.0316 µM
  IC50: > 10 µM
Second compound 0.1 µM
  IC50: > 10 µM
Second compound 0.316 µM
  IC50: > 10 µM
Second compound 1 µM
  IC50: > 10 µM
Second compound 3.16 µM
  IC50: > 10 µM
Second compound 10 µM
  IC50: > 10 µM
[1]
  viability, T/C: 102%
[2]
  viability, T/C: 78.8%
[3]
  viability, T/C: 78.5%
[4]
  viability, T/C: 82.1%
[5]
  viability, T/C: 76.5%
[6]
  viability, T/C: 66.5%
[7]
  viability, T/C: 103%
[8]
  viability, T/C: 86.2%
[9]
  viability, T/C: 91.1%
[10]
  viability, T/C: 76%
[11]
  viability, T/C: 73.4%
[12]
  viability, T/C: 70.4%
[13]
  viability, T/C: 95%
[14]
  viability, T/C: 87.8%
[15]
  viability, T/C: 88.3%
[16]
  viability, T/C: 79.4%
[17]
  viability, T/C: 79.3%
[18]
  viability, T/C: 72.8%
[19]
  viability, T/C: 91.8%
[20]
  viability, T/C: 91.4%
[21]
  viability, T/C: 95%
[22]
  viability, T/C: 88.5%
[23]
  viability, T/C: 77.7%
[24]
  viability, T/C: 79.1%
[25]
  viability, T/C: 98.7%
[26]
  viability, T/C: 107%
[27]
  viability, T/C: 94.2%
[28]
  viability, T/C: 83%
[29]
  viability, T/C: 84.5%
[30]
  viability, T/C: 73.3%
[31]
  viability, T/C: 117%
[32]
  viability, T/C: 96.7%
[33]
  viability, T/C: 89.6%
[34]
  viability, T/C: 78.2%
[35]
  viability, T/C: 88.1%
[36]
  viability, T/C: 73.4%

## CC1COCCN1c1cc(C2(O)CC3CCC(C2)O3)c2cnn(-c3ccn[nH]3)c2n1 (stereo unspecified) + Cc1cccc(N(C)C(=O)C2C(O)CCN2c2nc(C)cc(C(F)(F)F)c2C#N)c1
Second compound 0.0316 µM
  IC50: 0.252 µM
Second compound 0.1 µM
  IC50: 0.256 µM
Second compound 0.316 µM
  IC50: 0.298 µM
Second compound 1 µM
  IC50: 0.467 µM
Second compound 3.16 µM
  IC50: 0.548 µM
Second compound 10 µM
  IC50: 0.291 µM
[1]
  viability, T/C: 117%
[2]
  viability, T/C: 70.1%
[3]
  viability, T/C: 47.8%
[4]
  viability, T/C: 29.2%
[5]
  viability, T/C: 43.7%
[6]
  viability, T/C: 46.3%
[7]
  viability, T/C: 95.8%
[8]
  viability, T/C: 73.1%
[9]
  viability, T/C: 42%
[10]
  viability, T/C: 35.9%
[11]
  viability, T/C: 37.3%
[12]
  viability, T/C: 64.2%
[13]
  viability, T/C: 101%
[14]
  viability, T/C: 82.9%
[15]
  viability, T/C: 49.2%
[16]
  viability, T/C: 33.8%
[17]
  viability, T/C: 43.5%
[18]
  viability, T/C: 52.3%
[19]
  viability, T/C: 94.1%
[20]
  viability, T/C: 85.5%
[21]
  viability, T/C: 54.8%
[22]
  viability, T/C: 34.5%
[23]
  viability, T/C: 38.6%
[24]
  viability, T/C: 54.3%
[25]
  viability, T/C: 98.3%
[26]
  viability, T/C: 89.3%
[27]
  viability, T/C: 55.1%
[28]
  viability, T/C: 32.1%
[29]
  viability, T/C: 46.8%
[30]
  viability, T/C: 56.8%
[31]
  viability, T/C: 102%
[32]
  viability, T/C: 78.1%
[33]
  viability, T/C: 48.8%
[34]
  viability, T/C: 32.8%
[35]
  viability, T/C: 51.7%
[36]
  viability, T/C: 50%

## CCc1cc2c(N3CCc4c(cc(Cn5ccnc5)cc4-c4cn(C)nc4C(F)(F)F)C3=O)cc(C)nc2c(OC)n1 + Cc1cccc(N(C)C(=O)C2C(O)CCN2c2nc(C)cc(C(F)(F)F)c2C#N)c1
Second compound 0.0316 µM
  IC50: > 10 µM
Second compound 0.1 µM
  IC50: > 10 µM
Second compound 0.316 µM
  IC50: > 10 µM
Second compound 1 µM
  IC50: > 10 µM
Second compound 3.16 µM
  IC50: > 10 µM
Second compound 10 µM
  IC50: > 10 µM
[1]
  viability, T/C: 116%
[2]
  viability, T/C: 91.1%
[3]
  viability, T/C: 83.4%
[4]
  viability, T/C: 87.9%
[5]
  viability, T/C: 72.2%
[6]
  viability, T/C: 68.1%
[7]
  viability, T/C: 99.3%
[8]
  viability, T/C: 99.4%
[9]
  viability, T/C: 88.1%
[10]
  viability, T/C: 78.5%
[11]
  viability, T/C: 75.8%
[12]
  viability, T/C: 69.6%
[13]
  viability, T/C: 112%
[14]
  viability, T/C: 99.1%
[15]
  viability, T/C: 85.4%
[16]
  viability, T/C: 79.4%
[17]
  viability, T/C: 82.7%
[18]
  viability, T/C: 72.7%
[19]
  viability, T/C: 102%
[20]
  viability, T/C: 94.9%
[21]
  viability, T/C: 84.2%
[22]
  viability, T/C: 84.6%
[23]
  viability, T/C: 78.3%
[24]
  viability, T/C: 72.6%
[25]
  viability, T/C: 107%
[26]
  viability, T/C: 98.4%
[27]
  viability, T/C: 101%
[28]
  viability, T/C: 79.8%
[29]
  viability, T/C: 82.5%
[30]
  viability, T/C: 73.9%
[31]
  viability, T/C: 110%
[32]
  viability, T/C: 103%
[33]
  viability, T/C: 93.9%
[34]
  viability, T/C: 90.1%
[35]
  viability, T/C: 86.7%
[36]
  viability, T/C: 79.3%

Reference: PubChem BioAssay AID1963850 (Molecular Pharmacology Branch, DTP, NCI, 2024)
